The values below come from patent publication US20250041313A1, “COMBINATION THERAPY FOR TREATMENT OF CANCER” (CITY OF HOPE, priority 2023, published 2025).

Assay [1] deals with SBC3 cells. The assay is described as follows: CCK-8 cell viability/cytotoxicity assay, 72 h. Format: cell-based, human. To be noted: Homo sapiens, SBC-3. The procedure: (§1) The expression levels of DRP1 and DHODH in SCLC lines were compared with non-malignant BEAS 2B cells. […] Previous studies have shown that Leflu and its active metabolite Teri regulate mitochondrial morphology (9,10,26). […] In vitro cytotoxicity effect of Teri and Leflu was tested in a panel of SCLC cell lines. Ten SCLC cell lines were treated with increasing concentrations of each drug for 72 h.
(§2) Isobologram and CI50 values were calculated using the Chou-Talalay method and IC50 to find synergism (FIG. 3B).

Assay [2] deals with SBC5 cells. The assay is described as follows: CCK-8 cell viability/cytotoxicity assay, 72 h. Format: cell-based, human. The method, then: as §1, §2
Assay [3] concerns H446 spheroids. The assay is described as follows: Spheroid LDH cytotoxicity/death assay. Conditions: 72 h. Format: cell-based, human. The procedure: (§3) SBC3 and H446 cells were plated at a density of 10,000 cells per well in 96-well ULA round-bottomed plates (S-Bio, Hudson, NH) and incubated for 72 h at 37° C., 5% CO2, and 95% humidity. Spheroids were transferred to low cell attachment dishes, grown for two days, and treated with drug. After treatment, spheroid samples were run with Western blot assay. For spheroid mitochondria visualization, they were stained with 250 nM MitoTracker® Red CMXRos and Hoechst from ThermoFisher Scientific (Waltham, MA) for 2 h after drug treatment. Spheroids were washed, fixated with 4% PFA, transferred into 96-well flat glass-bottom black microplate (Cellvis, Mountain View, CA), and mounted in wells.
LDH activity was measured using LDH Cytotoxicity Assay Kit following the manufacturer protocol (Thermo Fisher Scientific, Waltham, MA). Briefly, H446 and SBC3 spheroids after 72 hours of drug treatments were mixed with 10 μl 10× lysis buffer and incubated for 45 min in cell culture incubator. 50 μl of lysed cells from each sample were used to measure absorbance by plate reader (Tecan Spark 10, Salzburg, Austria). Percentage of cell cytotoxicity/death was calculated by using the following formula: […]

The subject of assay [4] is SBC3 spheroids. The assay is described as follows: Immunoblotting of spheroid lysates. Format: cell-based, human. The procedure:
(§4) SCLC total cell lysates were prepared using RIPA (radioimmunoprecipitation assay lysis buffer) lysis buffer. Protein concentration was determined using DC Protein Assay Kit Bio-Rad (Hercules, CA). Samples were then run on SDS-PAGE in 4-15% polyacrylamide gels and transferred onto Immobilon membranes (Millipore, MO), blocked, incubated with specific primary antibodies at 4° C. overnight, and subsequently developed with secondary antibodies. The following primary antibody were used: pan-Actin, Phospho-DRP1 (Ser^616), Phospho-DRP1 (Ser^637), Histone H2B (V^119), Phospho-Histone H2A.X (Ser^139), Phospho-P53 (Ser^15), P-53, Cleaved PARP (Asp^214) (D64E10), Phospho-Chk1 (Ser^345) (133D3) and p21 were from Cell Signaling Technology (City of Industry, CA), β-Actin (Sigma-Aldrich, St. Luis, MO), Phospho RNA Polymerase II (S2) antibody (Bethyl Lab, Montgomery, TX), RNA Polymerase II CTD4H8 (BioLegend, San Diego, CA), DHODH (E-8), DRP1 (C-5), GAPDH (0411), c-Myc (9E10), Tom20 (F-10), FisI (B-5), OPA1 (D-9), antibodies from Santa Cruz Biotechnology (Dallas, TX) and MFN2 (Abcam, Boston, MA) and Chk1, MDM2, Cyclin CDK4 and D1, and E2F1 (Proteintech, Rosemont, IL).
as §3

Assay [5] relates to H446 spheroids. The assay is described as follows: Spheroid MitoSOX assay (mitochondrial superoxide). Format: cell-based, human. To be noted: increase after 40 h. The method, then:
The IncuCyte system recorded two days MitoSOX red dye (Thermo Fisher Scientific, Waltham, MA) penetration in live H446 spheroids. Spheroids were labeled with 5 μM of dye and red fluorescence was assessed by IncuCyte software. Fluorescence and brightfield images were acquired on an Axio Observer 7 (Carl Zeiss, Jena, Germany) inverted microscope, equipped with a 10×/0.45 NA Plan-Apochromat objective, TL halogen lamp, Colibri 7, filter set 90 HE, and captured on a Zeiss Axiocam 702 CMOS camera. Exposure times and wavelengths were 15 ms (red fluorescence), 9.4 ms (brightfield), BP 555/30 excitation filter, and QBP 592/25 emission filter.

Assay [6] deals with H446 spheroids. The assay is described as follows: Imaris mitochondrial morphology in spheroids. To be noted: Teri 1600 nM, Teri/Lur 800, 1600 nM/pM. Format: cell-based, human. The method, then: Spheroids were transferred to low cell attachment dishes, grown for two days, and treated with drug. After treatment, spheroid samples were run with Western blot assay. For spheroid mitochondria visualization, they were stained with 250 nM MitoTracker® Red CMXRos and Hoechst from ThermoFisher Scientific (Waltham, MA) for 2 h after drug treatment. Spheroids were washed, fixated with 4% PFA, transferred into 96-well flat glass-bottom black microplate (Cellvis, Mountain View, CA), and mounted in wells. […] Z-stacks were acquired in Airyscan Fast mode with a 2.0 μm interval and optical zoom of 2.0. […] In Airyscan Fast mode excitation was provided by 405 nm (1.0%) and 561 nm (1.0%) lasers with gain and detection wavelengths: DAPI […] (450 nm) and Red […] (579 nm). 2D images were acquired with a 20×/0.8 NA Plan-Apochromat objective and captured with PMT detectors. […] Roundness ratios were calculated from Surface generated Bounding Box 00 Length measurements. Object lengths less than 0.1 μm were excluded, and lengths greater than 1.26 μm were separately analyzed as clusters. […] The Cells module was used to detect and quantify mitochondria and nucleus area from cell monolayers. […] Imaris includes nuclei in cytoplasm measurements, so mitochondrial area is calculated by subtracting nucleus area from cell cytoplasm area. […]

In assay [7] the test system is SCLC. Conditions: relapsed / second-line SCLC patients; cited from earlier work.
Assay [8] has as its system SBC5 SCLC cell line. The assay is described as follows: Immunoblotting of DRP1 phosphorylation. Format: cell-based, human. To be noted: SBC5 as printed. The procedure: as §4
Although mitochondrial areas of SBC5 cells were not affected with treatment, elongations of individual mitochondria were detected with each treatment.
For orientation: A western blot detects proteins with antibodies after separation by electrophoresis.

Setting [9] is: SBC3 cells, 72 h, read-out: IC50.

Where two headings read alike, the source gives them in different places.

For `Cc1oncc1C(=O)Nc1ccc(C(F)(F)F)cc1` [Leflunomide, leflunomide], the IC50 in assay [1] (setting [9]) came to 8.9 µM; in assay [2] (Homo sapiens, SBC-5, 72 h), 108 µM.
Turning to `COc1ccc2[nH]c3c(c2c1)CCN[C@]31CS[C@@H]2c3c(OC(C)=O)c(C)c4c(c3[C@H](COC1=O)N1[C@@H]2[C@H]2c3c(cc(C)c(OC)c3O)C[C@@H]([C@@H]1O)N2C)OCO4` [Lurbinectedin, lurbinectedin], in assay [3], the “percentage of dead cells” value is “significantly increased”. The p21 level entry in assay [4] is given as “upregulated”. Moreover, the “mitochondrial superoxide levels (MitoSOX)” value in assay [5] is recorded as “unaffected”. Further, the “Percentages of round/fragmentated mitochondria” value in assay [6] is reported as “significantly decreased”. In assay [7], the ORR is given as 32.7% and the “median PFS” value is on record as 3.5 months.
As for `C/C(O)=C(\C#N)C(=O)Nc1ccc(C(F)(F)F)cc1` [Teriflunomide, teriflunomide], the 50% inhibitory concentration (IC50) in assay [1] (SBC3, CCK-8 72 h, fixed concentrations of Teri and Carbo, read-out: IC50, single treatment and combination treatment) was 4.24 µM; in assay [1] (setting [9]) it was 2 µM; in assay [2], 33 µM; in assay [2] (Homo sapiens, SBC-5, 72 h), 30 µM. The DRP1 expression level entry in assay [8] is “unaffected”. Also, the “DRP1 phosphorylation at Ser616, and Ser637” value in assay [8] is recorded as “significantly inhibits”. In assay [5], the “mitochondrial superoxide levels (MitoSOX)” value is “unaffected”. In addition, the “Percentages of round/fragmentated mitochondria” value in assay [6] was “significantly decreased”.

As usually defined, the IC50 is the concentration at which inhibition is half-maximal.
